US20250376445A1, “COMPOUNDS AND METHODS FOR YAP/TEAD MODULATION AND INDICATIONS THEREFOR” (OPNA BIO SA, priority 2023, published 2025)

test system: TEAD-dependent transcription; test: TEAD-dependent transcription cell-based reporter assay (MSTO-211H+12XGTIIC luciferase); design: species or system human; settings: Homo sapiens; MSTO-211H+12XGTIIC reporter cells, 24 hours compound incubation, luminescence normalized to viability; read-out: MSTO-211H GMean IC50 (uM) Cell Assay Reporter Cell Variant: TEAD
Source text: The human mesothelioma cell line MSTO-211H was stably transfected with a pGL4.21 plasmid containing a synthetic promoter with 12 copies of the GTIIC TEAD response element that drives the expression of a luciferase reporter gene^1 using Lipofectamine transfection reagent (Thermo Fisher). Transfected cells were selected using puromycin and single cell clones expressing this construct (referred to as MSTO-211H+12XGTIIC) were generated by limiting dilution. MSTO-211H cells was characterized by genetic alterations in key components of the Hippo pathway^2, resulting in up-regulation of YAP/TEAD-mediated transcription. […] To evaluate TEAD inhibitors, the MSTO-211H+12XGTIIC cell line was seeded in a 96-well plate in 50 μL of culture media at 1×10^4 cells per well and incubated at 37° C. overnight. Serial dilutions of compounds (in total volume of 50 μL of culture media) were added to the cells and incubated at 37° C. for 24 hours. Each plate included cells treated with DMSO as high controls and cells treated with 20 μM of the reference compound K-975 (a known TEAD inhibitor)^3 as low controls. Cell viability was assayed by the addition of 25 μL of CellTiter-Fluor reagent (Promega) followed by a 30-minute incubation at 37° C. and quantification of the fluorescence signal (Ex400/Em505). Subsequently, luciferase expression was assayed by the addition of 25 μL of ONE-Glo reagent (Promega) followed by a 10-minute incubation at room temperature and quantification of the luminescence signal. The luminescence signal was normalized to the fluorescence signal to correct for any loss in cell viability over the 24-hour compound incubation period. The percentage of inhibition of normalized luminescence signal, indicative of compound-mediated inhibition of TEAD-dependent transcription, at individual compound concentrations relative to high and low controls was calculated. The data were analyzed by using nonlinear regression to generate IC50 values for individual compounds.

Structure (SMILES)	IC50 [µM]
CS(=O)(=O)c1nc(C(=O)N2CCc3ccc(C(F)(F)c4ccc(C(F)(F)F)nc4)cc3C2)c[nH]1 [O-0061, (7-(difluoro(6-(trifluoromethyl)pyridin-3-yl)methyl)-3,4-dihydroisoquinolin-2(1H)-yl)(2-(methylsulfonyl)-1H-imidazol-4-yl)methanone]	0.001 to 10
C[C@H](N)C(=O)N1CCc2c(cccc2-c2ccc(C(F)(F)F)cc2)C1 [O-0194, (S)-2-amino-1-(5-(4-(trifluoromethyl)phenyl)-3,4-dihydroisoquinolin-2(1H)-yl)propan-1-one]	0.001 to 10
C[C@@H](N)C(=O)N1CCc2ccc(-c3ccc(C(F)(F)F)cc3)cc2C1 [O-0187, (R)-2-amino-1-(7-(4-(trifluoromethyl)phenyl)-3,4-dihydroisoquinolin-2(1H)-yl)propan-1-one]	0.001 to 10
CS(=O)(=O)c1nc(C(=O)N2CCc3ccc(-c4ccc(C(F)(F)F)cc4)cc3C2)c[nH]1 [O-0189, (2-(methylsulfonyl)-1H-imidazol-4-yl)(7-(4-(trifluoromethyl)phenyl)-3,4-dihydroisoquinolin-2(1H)-yl)methanone]	0.001 to 10
CS(=O)(=O)c1nccc(C(=O)N2CCc3c(cccc3C(=O)c3ccc(C(F)(F)F)cc3)C2)n1 [O-0033, (2-(methylsulfonyl)pyrimidin-4-yl)(5-(4-(trifluoromethyl)benzoyl)-3,4-dihydroisoquinolin-2(1H)-yl)methanone]	0.001 to 10
C=CC(=O)N1CCc2cc(-c3ccc(C(F)(F)F)cc3)ccc2C1 [O-0110, 1-(6-(4-(trifluoromethyl)phenyl)-3,4-dihydroisoquinolin-2(1H)-yl)prop-2-en-1-one]	0.001 to 10
O=C(c1ccc(C(F)(F)F)cc1)c1cccc2c1CCN(C(=O)CCc1cnc[nH]1)C2 [O-0048, 3-(1H-imidazol-5-yl)-1-(5-(4-(trifluoromethyl)benzoyl)-3,4-dihydroisoquinolin-2(1H)-yl)propan-1-one]	0.001 to 10
O=C(c1ccc(C(F)(F)F)cc1)c1cccc2c1CCN(C(=O)c1c[nH]c(C(F)(F)F)n1)C2 [O-0037, (2-(trifluoromethyl)-1H-imidazol-4-yl)(5-(4-(trifluoromethyl)benzoyl)-3,4-dihydroisoquinolin-2(1H)-yl)methanone]	0.001 to 10
O=C(c1ccc(C(F)(F)F)cc1)c1cccc2c1CCN(C(=O)c1ccc3nc[nH]c3c1)C2 [O-0074, (2-(1H-benzo[d]imidazole-6-carbonyl)-1,2,3,4-tetrahydroisoquinolin-5-yl)(4-(trifluoromethyl)phenyl)methanone]	0.001 to 10
